Results on four molecules are retold here after patent publication US9512130B2, “Substituted imidazopyridazines” (BAYER PHARMA AKTIENGESELLSCHAFT, priority 2013, dated 2016).

Data set [1] deals with T1, human CYP3A4 (Homo sapiens (Human), UniProt P08684). As to the kind of experiment: Determination of inhibitory potential on human CYP3A4. The class given is in vitro ADME. The conditions noted are these: human liver microsomes, midazolam as probe substrate. As to the method:
Determination of Inhibitory Potential on Human CYP3A4
The potential of the test compound to act as a competitive inhibitor of CYP3A4 was evaluated in in vitro assays, using human liver microsomes and the reference substrate midazolam. The test compound was solved in acetonitrile. Human liver microsomal preparation (pool of HLM) was applied for the assay. A stock solution of the test compound was added to phosphate buffer containing EDTA, NADP, glucose 6-phosphate, and glucose 6-phosphate dehydrogenase. This mixture was sequentially diluted on a Genesis Workstation (Tecan, Crailsheim, FRG). After pre-warming, reaction was initiated by addition of a mixture of probe substrate (midazolam). […] The reference samples (substrate, but no inhibitor) were incubated in parallel in sextuple and contained the same amount of solvent as the test incubations. Reactions were stopped by addition of 100 μL acetonitrile containing the internal standard. Precipitated proteins were removed by centrifugation of the well plate, supernatants were analyzed by LC-MS/MS.
The CYP3A4-mediated metabolic activity in the presence of the test compounds was expressed as percentages of the corresponding reference value. A sigmoid-shaped curve was fitted to the data to calculate the enzyme inhibition parameter IC50 using a nonlinear least-squares regression analysis of the plot of percent control activity versus concentration of the test inhibitor.
A general note: Microsomes from liver hold many membrane-bound enzymes, among them those of drug oxidation.

The subject of a further data set is HeLa cells. The data set can be described thus: Proliferation Assay with HeLa cells. The class given is cell-based. The conditions noted are these: Homo sapiens, 96 h, 4 days incubation, crystal violet staining. As to the method:
After 24 hours, the cells of one plate (zero-point plate) were stained with crystal violet (see below), while the medium of the other plates was replaced by fresh culture medium (200 μl), to which the test substances were added in various concentrations (0 μM, as well as in the range of 0.01-30 μM; the final concentration of the solvent dimethyl sulfoxide was 0.5%). The cells were incubated for 4 days in the presence of test substances. […] After three washing cycles of the fixed cells with water, the plates were dried at room temperature. The cells were stained by adding 100 μl/measuring point of a 0.1% crystal violet solution (pH 3.0). After three washing cycles of the stained cells with water, the plates were dried at room temperature. The dye was dissolved by adding 100 μl/measuring point of a 10% acetic acid solution. The extinction was determined by photometry at a wavelength of 595 nm. The change of cell number, in percent, was calculated by normalization of the measured values to the extinction values of the zero-point plate (=0%) and the extinction of the untreated (0 μm) cells (=100%). The IC50 values were determined by means of a 4 parameter fit using the company's own software.

Data set [2] concerns the target T1, human CYP3A4. As to the kind of experiment: Determination of mechanism-based inhibition of human CYP3A4. Format: in vitro ADME. As to conditions: irreversible CYP3A4 inactivation; inactivator molecules metabolized per CYP3A4 molecule inactivated; testosterone substrate. As to the method:
Determination of Mechanism-Based Inhibition of Human CYP3A4
The test compound was incubated at 37° C. in a concentration-NADPH-, and time-dependent setting. Therefore, the test compound was incubated at 4 different concentrations (e.g.: 1, 2, 5, 10 μM) in the presence of NADPH ([…]) and regenerating system in phosphate-buffered saline ([…], pH 7.4) The highest concentration of test compound was incubated without NADPH and therefore served as the NADPH-deficient control. In addition, acetonitrile as a vehicle control (negative control) and mibefradil as positive control for irreversible CYP3A4 inactivation were also included using identical assay conditions.
Each mixture was incubated with the enzyme (preincubation) for up to 50 minutes.
Afterwards, the reaction in the main incubation was stopped by the addition of acetonitrile (containing an internal standard), the protein was allowed to precipitate by placing the mixture into an ice bath. Subsequently, the mixture was centrifuged to pelletize the protein and the supernatants were analyzed by HPLC-MS for the isoform specific metabolite e.g. […] and the remaining amount of the test compound.
In parallel the turnover of the substrate was plotted against the preincubation time.

Data set [3] can be described thus: In vitro metabolic stability in rat hepatocytes. The class given is in vitro ADME. The conditions noted are these: maximal oral bioavailability calculated from half-life in Han Wistar rat hepatocytes, 1 μM test compound. As to the method: Investigation of In Vitro Metabolic Stability in Rat Hepatocytes (Including Calculation of Hepatic In Vivo Blood Clearance (CL)) Hepatocytes from Han Wistar rats were isolated via a 2-step perfusion method. After perfusion, the liver was carefully removed from the rat: the liver capsule was opened and the hepatocytes were gently shaken out into a Petri dish with ice-cold WME. The resulting cell suspension was filtered through sterile gaze in 50 ml falcon tubes and centrifuged at 50×g for 3 min at room temperature. The cell pellet was resuspended in 30 ml WME and centrifuged through a Percoll® gradient for 2 times at 100×g. The hepatocytes were washed again with Williams' medium E (WME) and resuspended in medium containing 5% FCS. Cell viability was determined by trypan blue exclusion. For the metabolic stability assay liver cells were distributed in WME containing 5% FCS to glass vials at a density of 1.0×10^6 vital cells/mL. […] During incubation, the hepatocyte suspensions were continuously shaken and aliquots were taken at 2, 8, 16, 30, 45 and 90 min, to which equal volumes of cold methanol were immediately added. Samples were frozen at −20° C. over night, after subsequently centrifuged for 15 minutes at 3000 rpm and the supernatant was analyzed with an Agilent 1200 HPLC-system with LCMS/MS detection. The half-life of a test compound was determined from the concentration-time plot. From the half-life the intrinsic clearances were calculated. Together with the additional parameters liver blood flow, amount of liver cells in vivo and in vitro. The hepatic in vivo blood clearance (CL) and the maximal oral bioavailability (Fmax) was calculated. The following parameter values were used: Liver blood flow—4.2 L/h/kg rat; specific liver weight—32 g/kg rat body weight; liver cells in vivo—1.1×10^8 cells/g liver, liver cells in vitro—0.5×10^6/ml.

Data set [4] deals with spindle assembly checkpoint (Mps-1) in HeLa cells. As to the kind of experiment: cells. The conditions noted are these: Homo sapiens; HeLa cells arrested with nocodazole, 4 h with test compound, phospho-histone H3 (Ser10) readout; read-out: SAC. The class given is cell-based.
Description: Spindle Assembly Checkpoint Assay
The spindle assembly checkpoint assures the proper segregation of chromosomes during mitosis. Upon entry into mitosis, chromosomes begin to condensate which is accompanied by the phosphorylation of histone H3 on serine 10. Dephosphorylation of histone H3 on serine 10 begins in anaphase and ends at early telophase. Accordingly, phosphorylation of histone H3 on serine 10 can be utilized as a marker of cells in mitosis. Nocodazole is a microtubule destabilizing substance. Thus, nocodazole interferes with microtubule dynamics and mobilises the spindle assembly checkpoint. […] An inhibition of the spindle assembly checkpoint by Mps-1 inhibitors overrides the mitotic blockage in the presence of nocodazole, and the cells complete mitosis prematurely. This alteration is detected by the decrease of cells with phosphorylation of histone H3 on serine 10. This decline is used as a marker to determine the capability of compounds of the present invention to induce a mitotic breakthrough.
Cultivated cells of the human cervical tumour cell line HeLa (ATCC CCL-2) were plated at a density of 2500 cells/well in a 384-well microtiter plate in 20 μl Dulbeco's Medium (w/o phenol red, w/o sodium pyruvate, w 1000 mg/ml glucose, w pyridoxine) supplemented with 1% (v/v) glutamine, 1% (v/v) penicillin, 1% (v/v) streptomycin and 10% (v/v) fetal calf serum. After incubation overnight at 37° C., 10 μl/well nocodazole at a final concentration of 0.1 μg/ml were added to cells. After 24 h incubation, cells were arrested at G2/M phase of the cell cycle progression. […] Images were acquired with a Perkin Elmer OPERA™ High-Content Analysis reader. Images were analyzed with image analysis software MetaXpress™ from Molecular devices utilizing the Cell Cycle application module. […] The raw assay data were further analysed by four parameter logistic regression analysis to determine the IC50 value for each tested compound.

T1 sequence (P08684 whole entry): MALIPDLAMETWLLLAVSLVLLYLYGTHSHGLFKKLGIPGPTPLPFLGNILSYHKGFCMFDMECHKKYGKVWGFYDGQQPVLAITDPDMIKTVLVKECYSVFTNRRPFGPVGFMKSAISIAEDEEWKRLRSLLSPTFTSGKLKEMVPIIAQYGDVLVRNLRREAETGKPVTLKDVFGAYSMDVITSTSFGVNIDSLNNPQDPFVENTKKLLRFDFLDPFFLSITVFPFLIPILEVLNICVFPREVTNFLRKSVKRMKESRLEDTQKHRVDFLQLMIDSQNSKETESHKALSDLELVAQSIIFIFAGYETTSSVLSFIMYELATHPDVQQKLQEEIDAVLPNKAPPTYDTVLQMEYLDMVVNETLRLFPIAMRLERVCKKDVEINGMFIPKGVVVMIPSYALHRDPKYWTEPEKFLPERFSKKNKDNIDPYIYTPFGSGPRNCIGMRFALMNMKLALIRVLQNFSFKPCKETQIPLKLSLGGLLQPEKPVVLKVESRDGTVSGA

Regarding `COc1ccc(Oc2cc(NCC3COC3)c3ncc(-c4ccc(C(=O)NC5CC5)c(C)c4)n3n2)cc1F` [Example 1, N-cyclopropyl-4-{6-(3-fluoro-4-methoxyphenoxy)-8-[(oxetan-3-ylmethyl)amino]imidazo[1,2-b]pyridazin-3-yl}-2-methylbenzamide], the IC50 at human CYP3A4 [1] is > 5000 nM; in the data set on HeLa cells it was 2.9 nM; in data set [4], 0.97 nM. For the same molecule, the CYP3A4 partition ratio at human CYP3A4 [2] worked out at 105. In data set [3], the Fmax rat hep is on record as 44%.

Molecule `COc1ccc(Oc2cc(NCCC(F)(F)F)c3ncc(-c4ccc(C(=O)NC5CC5)c(C)c4)n3n2)c(F)c1F` [Example 2, N-cyclopropyl-4-{6-(2,3-difluoro-4-methoxyphenoxy)-8-[(3,3,3-trifluoropropyl)amino]imidazo[1,2-b]pyridazin-3-yl}-2-methylbenzamide] had an IC50 in the data set with HeLa cells of 7.8 nM. In addition, the Fmax rat hep in data set [3] was 72%.

Consider `COc1ccc(Oc2cc(NCC3CCOCC3)c3ncc(-c4ccc(C(=O)NC5CC5)c(C)c4)n3n2)c(F)c1F` [Example 3, N-cyclopropyl-4-{6-(2,3-difluoro-4-methoxyphenoxy)-8-[(tetrahydro-2H-pyran-4-ylmethyl)amino]imidazo[1,2-b]pyridazin-3-yl}-2-methylbenzamide], for which the IC50 against human CYP3A4 [1] was > 10000 nM; with HeLa cells it was 18.1 nM; in data set [4], 0.08 nM. Further, the CYP3A4 partition ratio at human CYP3A4 [2] is 33. Moreover, the Fmax rat hep in data set [3] is 39%.

Regarding `Cc1cc(-c2cnc3c(NCCC(F)(F)F)cc(Oc4cccc(F)c4)nn23)ccc1C(=O)NC1CC1` [Ref., N-cyclopropyl-4-{6-(3-fluorophenoxy)-8-[(3,3,3-trifluoropropyl)amino]imidazo[1,2-b]pyridazin-3-yl}-2-methylbenzamide, reference compound], the IC50 at human CYP3A4 [1] was > 10000 nM; in the data set with HeLa cells it was 23 nM; in data set [4] it was 0.52 nM. For the same molecule, the CYP3A4 partition ratio on human CYP3A4 [2] amounted to 3. For the same molecule, the Fmax rat hep in data set [3] is reported as 38%.
